# Data from patent US20100160408A1, “VILDAGLIPTIN FOR TREATING GENERAL PERIPHERAL NEUROPATHIES” (priority 2004, published 2010).
# Key:
# aged rats [1] = experiment: Morris water maze learning test in aged rats; format: in vivo; details: repeated oral administration, vildagliptin 3 mg/kg and/or donepezil 0.3 mg/kg, test started on day 20 of treatment, versus control group
# Text: (§1) The ameliorative effect of vildagliptin or the combined use of vildagliptin with the compounds having cholinesterase inhibitory activity on learning deficits is investigated in aged rats.
# (§2) Methods Male (3 to 27 months old) rats of transgenic strain are used. The aged rats are divided into the following four groups (the active ingredient dosage can be adapted by the person skilled in the art).
# (§3) 1) Control group: Repeated administration of placebo pill.
# (§4) 2) Vildagliptin group: Repeated oral administration of vildagliptin 3 mg/kg.
# (§5) Passive avoidance learning test is started on day 14 of treatment, and Morris water maze learning test on day 20 of treatment.
# (§6) On each day of experiment, vildagliptin arid/or a cholinesterase inhibitor are administered 30 minutes and 1 hour, respectively, before initiation of the trial.
# Morris Water Maze Learning Same animals used in the passive avoidance test are subjected for the water maze task. However, some rats can not swim well in the water tank, thus they are excluded in the water maze task.
# In pretraining which is performed for swimming training and motivation for escaping from water, four trials are performed using a water bath, 80 cm in diameter, in a condition that the platform is visible. […]
# aged rats [2] = experiment: Passive avoidance learning test in aged rats; format: in vivo; details: repeated oral administration, vildagliptin 3 mg/kg and/or donepezil 0.3 mg/kg, test started on day 14 of treatment, versus control group
# Text: as §1, §2, §3, §4, §5, §6
# Passive Avoidance Learning: The passive avoidance learning test is performed using a chamber consisting of light and dark compartments. […] After a mouse moves to the dark compartment, the mouse is kept there for about 10 seconds with the door closed. One to two hours after the habituation trial, acquisition trial is performed. […]
# In each trial, the latency from opening of the slide door until the animal moved to the dark compartment (step-through latency) is measured.
smiles,measurement,setting,value
"N#C[C@@H]1CCCN1C(=O)CNC12CC3CC(CC(O)(C3)C1)C2 [vildagliptin, (S)-1-[(3-hydroxy-1-adamantyl)amino]acetyl-2-cyano-pyrrolidine]",water maze learning deficit (latency to find platform submerged in the water),aged rats [1],significant improvement in water maze learning deficit
same,learning deficit in passive avoidance learning (step-through latency / avoidance time),aged rats [2],significant improvement of the learning deficit
